Measurements as given in patent US7407960B2, “Substituted heterocyclic compounds” (CV Therapeutics, Inc., priority 2002, dated 2008).
pIC50: −log10 of the molar value.

System: Palmitoyl CoA oxidation
Experiment: Palmitoyl CoA oxidation in isolated rat heart mitochondria
Assay type: biochemical
Settings: 1-C14 palmitoyl CoA, 15 min at 30° C., read-out: PalmCoA IC50
Description: Rat heart mitochondria were isolated by the method of Nedergard and Cannon (Methods in Enzymol. 55, 3, 1979).
Palmitoyl CoA oxidation—The Palmityl CoA oxidation was carried out in a total volume of 100 micro liters containing the following agents: 110 mM KCl, 33 mM Tris buffer at pH 8, 2 mM KPi, 2 mM MgCl2, 0.1 mM EDTA, 14.7 microM defatted BSA, 0.5 mM malic acid, 13 mM carnitine, 1 mM ADP, 52 micrograms of mitochondrial protein, and 16 microM 1-C14 palmitoyl CoA (Sp. Activity 60 mCi/mmole; 20 microCi/ml, using 5 microliters per assay). The compounds of this invention were added in a DMSO solution at the following concentrations: 100 micro molar, 30 micro molar, and 3 micro molar. In each assay, a DMSO control was used. After 15 min at 30° C., the enzymatic reaction was centrifuged (20,000 g for 1 min), and 70 microliters of the supernatant was added to an activated reverse phase silicic acid column (approximately 0.5 ml of silicic acid). The column was eluted with 2 ml of water, and 0.5 ml of the eluent was used for scintillation counting to determine the amount of C^14 trapped as C^14 bicarbonate ion.

pIC50: 6.82
Compound: Cc1nc2cc(OC[C@H](O)CN3CCN(CC(=O)Nc4cccc5c4CCC5)CC3)ccc2s1 [2-{4-[(2R)-2-hydroxy-3-(2-methylbenzothiazol-5-yloxy)propyl]piperazinyl}-N-indan-4-ylacetamide]
